Measurements from PubChem BioAssay AID328 (DTP/NCI, 2004).
Toxic doses and inconclusive results are not listed. The calls were made as follows: active = survival T/C of 150% or more; inactive = T/C below 125% in these data.

Tested on: BDF1 mice, P388 leukemia ip, median survival T/C
Test: NCI In Vivo Anticancer Drug Screen. Data for tumor model P388 Leukemia (intraperitoneal) in B6D2F1 (BDF1) mice
Settings: endpoint: median survival time, higher = longer survival
In short: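 In tumour-bearing mice, survival after compound treatment is set against the vehicle group and given as a quotient.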

[1] = dose: 100.0 mg/kg/injection, schedule: Q01DX001 (ip), vehicle: saline with Tween-80
[2] = dose: 100.0 mg/kg/injection, schedule: Q01DX009 (ip), vehicle: saline with Tween-80
[3] = dose: 200.0 mg/kg/injection, schedule: Q01DX009 (ip), vehicle: saline with Tween-80
[4] = dose: 50.0 mg/kg/injection, schedule: Q01DX009 (ip), vehicle: saline with Tween-80
[5] = dose: 100.0 mg/kg/injection, schedule: Q01DX009 (ip), vehicle: Klucel (hydroxypropylcellulose) (HPC)
[6] = dose: 200.0 mg/kg/injection, schedule: Q01DX009 (ip), vehicle: Klucel (hydroxypropylcellulose) (HPC)
[7] = dose: 12.5 mg/kg/injection, schedule: Q01DX009 (ip), vehicle: saline with Tween-80
[8] = dose: 25.0 mg/kg/injection, schedule: Q01DX009 (ip), vehicle: saline with Tween-80
[9] = dose: 100.0 mg/kg/injection, schedule: Q04DX003 (ip), vehicle: saline with Tween-80
[10] = dose: 200.0 mg/kg/injection, schedule: Q04DX003 (ip), vehicle: saline with Tween-80
[11] = dose: 400.0 mg/kg/injection, schedule: Q01DX009 (ip), vehicle: saline with Tween-80
[12] = dose: 400.0 mg/kg/injection, schedule: Q04DX003 (ip), vehicle: saline with Tween-80
[13] = dose: 100.0 mg/kg/injection, schedule: Q04DX003 (ip), vehicle: saline
[14] = dose: 200.0 mg/kg/injection, schedule: Q04DX003 (ip), vehicle: saline
[15] = dose: 25.0 mg/kg/injection, schedule: Q01DX009 (ip), vehicle: saline
[16] = dose: 50.0 mg/kg/injection, schedule: Q01DX009 (ip), vehicle: saline

Measured: T/C

CCCNC(C)(C)C(SS)c1ccc(C(F)(F)F)cc1 (stereo not drawn)
inactive: dose: 12.5 mg/kg/injection, schedule: Q04DX003 (ip), vehicle: other 100 % of control | dose: 25.0 mg/kg/injection, schedule: Q04DX003 (ip), vehicle: other 110 % of control | dose: 50.0 mg/kg/injection, schedule: Q04DX003 (ip), vehicle: other 105 % of control

COc1ccc2nc(N)n(C(=O)c3ccccc3)c(=O)c2c1
inactive: [1] 101 % of control | dose: 200.0 mg/kg/injection, schedule: Q01DX001 (ip), vehicle: saline with Tween-80 109 % of control | dose: 400.0 mg/kg/injection, schedule: Q01DX001 (ip), vehicle: saline with Tween-80 109 % of control

O=[N+]([O-])C=C1CCCCC1
inactive: dose: 25.0 mg/kg/injection, schedule: Q01DX001 (ip), vehicle: saline with Tween-80 113 % of control | dose: 50.0 mg/kg/injection, schedule: Q01DX001 (ip), vehicle: saline with Tween-80 118 % of control | [1] 113 % of control

CCOC(=O)C(Cc1ccccc1Cl)(Cc1ccccc1Cl)c1ccccc1
inactive: [2] 106 % of control | [3] 100 % of control

CC1(O)c2cccc(Sc3ccccc3)c2C(C)(O)c2c(Sc3ccccc3)cccc21 (stereo not drawn)
inactive: [4] 107 % of control | [2] 99 % of control | [3] 98 % of control

Cc1ccc(NC(=S)N2CCC(CCCC3CCN(C(=S)Nc4ccc(C)c(C)c4)CC3)CC2)cc1C
inactive: [5] 100 % of control | dose: 100.0 mg/kg/injection, schedule: Q04DX003 (ip), vehicle: Klucel (hydroxypropylcellulose) (HPC) 95 % of control | [6] 90 % of control | dose: 200.0 mg/kg/injection, schedule: Q04DX003 (ip), vehicle: Klucel (hydroxypropylcellulose) (HPC) 95 % of control | dose: 400.0 mg/kg/injection, schedule: Q01DX009 (ip), vehicle: Klucel (hydroxypropylcellulose) (HPC) 90 % of control | dose: 400.0 mg/kg/injection, schedule: Q04DX003 (ip), vehicle: Klucel (hydroxypropylcellulose) (HPC) 100 % of control

Nc1cccc(NC=O)c1
inactive: [7] 100 % of control | [8] 108 % of control | [4] 95 % of control

NC(=S)N=Nc1c(O)[nH]c2ccccc12
inactive: dose: 50.0 mg/kg/injection, schedule: Q01DX009 (ip), vehicle: Klucel (hydroxypropylcellulose) (HPC) 119 % of control | [5] 118 % of control | [6] 115 % of control

CCN(CC)CC(C)=C(B1OC(C)(C)C(C)(C)O1)B1OC(C)(C)C(C)(C)O1
inactive: dose: 50.0 mg/kg/injection, schedule: Q01DX001 (ip), vehicle: saline 110 % of control | dose: 100.0 mg/kg/injection, schedule: Q01DX001 (ip), vehicle: saline 105 % of control | dose: 200.0 mg/kg/injection, schedule: Q01DX001 (ip), vehicle: saline 100 % of control

Nc1ncnc2c1ncn2C1OC(CO)CC1O (stereo not drawn)
inactive: dose: 4.68 mg/kg/injection, schedule: Q01DX009 (ip), vehicle: Klucel (hydroxypropylcellulose) (HPC) 108 % of control | dose: 9.37 mg/kg/injection, schedule: Q01DX009 (ip), vehicle: Klucel (hydroxypropylcellulose) (HPC) 106 % of control | dose: 18.75 mg/kg/injection, schedule: Q01DX009 (ip), vehicle: Klucel (hydroxypropylcellulose) (HPC) 106 % of control | dose: 37.5 mg/kg/injection, schedule: Q01DX009 (ip), vehicle: Klucel (hydroxypropylcellulose) (HPC) 111 % of control | dose: 75.0 mg/kg/injection, schedule: Q01DX009 (ip), vehicle: Klucel (hydroxypropylcellulose) (HPC) 106 % of control | dose: 150.0 mg/kg/injection, schedule: Q01DX009 (ip), vehicle: Klucel (hydroxypropylcellulose) (HPC) 106 % of control

CN=C(N)c1ccc(N=C(N)c2ccc(N=C(N)c3ccc(C(N)=NC)cc3)cc2)cc1
inactive: dose: 10.0 mg/kg/injection, schedule: Q04DX003 (ip), vehicle: saline 104 % of control | dose: 20.0 mg/kg/injection, schedule: Q04DX003 (ip), vehicle: saline 104 % of control | dose: 40.0 mg/kg/injection, schedule: Q04DX003 (ip), vehicle: saline 116 % of control

CCc1c(Cl)c(C)cc(O)c1Cl
inactive: dose: 18.0 mg/kg/injection, schedule: Q01DX009 (ip), vehicle: gum acacia 112 % of control | dose: 25.0 mg/kg/injection, schedule: Q01DX009 (ip), vehicle: gum acacia 112 % of control | dose: 25.0 mg/kg/injection, schedule: Q04DX003 (ip), vehicle: gum acacia 88 % of control | dose: 50.0 mg/kg/injection, schedule: Q01DX009 (ip), vehicle: gum acacia 100 % of control | dose: 50.0 mg/kg/injection, schedule: Q04DX003 (ip), vehicle: gum acacia 92 % of control | dose: 100.0 mg/kg/injection, schedule: Q04DX003 (ip), vehicle: gum acacia 96 % of control

O=C(O)c1ccccc1C(=O)NNC(=O)c1ccccc1C(=O)O
inactive: [2] 100 % of control | [9] 90 % of control | [3] 95 % of control | [10] 113 % of control | [11] 90 % of control | [12] 109 % of control

OC(C#CC(O)c1ccccc1)c1ccccc1 (stereo not drawn)
inactive: [13] 100 % of control | [14] 104 % of control

COc1cc2c(cc1OCc1ccccc1)C(C#N)N(C(=O)c1ccccc1)C=C2 (stereo not drawn)
inactive: [15] 109 % of control | dose: 25.0 mg/kg/injection, schedule: Q04DX003 (ip), vehicle: saline 97 % of control | [16] 100 % of control | dose: 50.0 mg/kg/injection, schedule: Q04DX003 (ip), vehicle: saline 95 % of control | dose: 100.0 mg/kg/injection, schedule: Q01DX009 (ip), vehicle: saline 97 % of control | [13] 97 % of control | dose: 200.0 mg/kg/injection, schedule: Q01DX009 (ip), vehicle: saline 98 % of control | [14] 88 % of control | dose: 400.0 mg/kg/injection, schedule: Q01DX009 (ip), vehicle: saline 100 % of control | dose: 400.0 mg/kg/injection, schedule: Q04DX003 (ip), vehicle: saline 94 % of control

NC1=NNC(N)=NN1
inactive: dose: 12.5 mg/kg/injection, schedule: Q01DX009 (ip), vehicle: saline 94 % of control | [15] 100 % of control | [16] 96 % of control

CCOC(=O)/C=C(\C)C(C)=O
inactive: [2] 104 % of control | [9] 109 % of control | [3] 109 % of control | [10] 104 % of control | [11] 113 % of control | [12] 118 % of control

CC(=O)OC1CC(OC2C(O)CC(OC3C(O)CC(OC4CCC5(C)C(CCC6C5CCC5(C)C(C7=CC(=O)OC7)C(O)CC65O)C4)OC3C)OC2C)OC(C)C1OC1OC(CO)C(O)C(O)C1O (stereo not drawn)
inactive: dose: 12.5 mg/kg/injection, schedule: Q01DX010 (ip), vehicle: carboxymethylcellulose (CMC) 109 % of control | dose: 12.5 mg/kg/injection, schedule: Q04DX003 (ip), vehicle: Klucel (hydroxypropylcellulose) (HPC) 110 % of control | dose: 25.0 mg/kg/injection, schedule: Q01DX010 (ip), vehicle: carboxymethylcellulose (CMC) 95 % of control | dose: 25.0 mg/kg/injection, schedule: Q04DX003 (ip), vehicle: Klucel (hydroxypropylcellulose) (HPC) 120 % of control

CN1CCN(C(=O)c2ccc(Cl)c(Cl)c2)CC1
inactive: dose: 3.12 mg/kg/injection, schedule: Q01DX009 (ip), vehicle: saline with Tween-80 103 % of control | dose: 6.25 mg/kg/injection, schedule: Q01DX009 (ip), vehicle: saline with Tween-80 99 % of control | [7] 103 % of control | dose: 12.5 mg/kg/injection, schedule: Q04DX003 (ip), vehicle: saline with Tween-80 108 % of control | [8] 88 % of control | dose: 25.0 mg/kg/injection, schedule: Q04DX003 (ip), vehicle: saline with Tween-80 97 % of control | [4] 99 % of control | dose: 50.0 mg/kg/injection, schedule: Q04DX003 (ip), vehicle: saline with Tween-80 91 % of control | [2] 105 % of control | [9] 97 % of control

O=C1c2c(Cl)c(Cl)c(Cl)c(Cl)c2C(=O)N1c1ccc(-c2ccccc2)cc1
inactive: dose: 43.7 mg/kg/injection, schedule: Q01DX009 (ip), vehicle: saline with Tween-80 101 % of control | dose: 87.5 mg/kg/injection, schedule: Q01DX009 (ip), vehicle: saline with Tween-80 101 % of control | dose: 175.0 mg/kg/injection, schedule: Q01DX009 (ip), vehicle: saline with Tween-80 99 % of control
